Where “and” joins values, the source holds several entries; their conditions need not be identical. Equal values may be shown once. Read-outs that look alike come from different tables or passages of the source.
Tests used:
mCB1R = biological target: T1, mCB1R (Mus musculus, UniProt P47746); assay: biochemical
T1 construct: from tissue; host or cells: brain of male C57BL/6J mice

human NAPE-PLD = biological target: T2, human NAPE-PLD (Homo sapiens, UniProt Q6IQ20); assay: NAPE-PLD inhibition; assay type: biochemical; conditions: for inhibition at 10 µM: read-out: NAPE-PLD % inhibition at 10 µM ± SD
T2 construct: Full length human cDNA NAPE-PLD was obtained from Natsuo Ueda; expressed in transfected cells; host or cells: HEK293T (transient), membrane fraction
Experimental: Full length human cDNA NAPE-PLD was obtained from Natsuo Ueda[58] and cloned into mammalian expression vector pcDNA3.1, containing a C-terminal Flag-tag and genes for ampicillin and neomycin resistance. All plasmids were grown in XL-10 Z-competent cells and prepped (Maxi Prep, Qiagen). Sequence analysis for the confirmation of the sequences was performed at the Leiden Genome Technology Centre.
HEK293T cells (source: Dutch Cancer Institute) were cultured at 37 °C and 7% CO2 in DMEM with glutamax, penicillin (100 μg ml^−1), streptomycin (100 μg ml^−1) and 10% New Born Calf Serum iron supplemented (Hyclone SH30072.03). Cells were passaged twice a week to appropriate confluence. Twenty-four hours before transfection 10^7 cells were seeded on a 15 cm dish. Two hours before transfection, the medium was refreshed. Transfection is performed with PEI in a ratio of 3:1 with human NAPE-PLD or Mock pcDNA3.1Neo, 20 μg per dish. Medium is refreshed after 24 h and cells are harvested after 72 h. Cell suspensions are centrifuged at 1,000g for 10 min, supernatant removed and pellets frozen at −80 °C until further use.
Cell pellets are re-suspended in lysis buffer 1: 20 mM Hepes, 2 mM DTT, 0.25 M sucrose, 1 mM MgCl2, 2.5 U ml^−1 benzonase and incubated 30 min on ice. The cytosolic fraction (supernatant) is separated from the membranes by ultra-centrifugation (32,000 rpm for 30 min 100,000g). The pellet is resuspended in buffer 2: 20 mM Hepes, 2 mM DTT (membrane fraction). All samples are stored at −80 °C. Enzyme concentrations are determined using a Bradford assay.
The membrane protein fraction from transient overexpression of NAPE-PLD in HEK293T cells was diluted to 0.4 mg ml^−1 in assay buffer: 50 mM Tris-HCl (pH 7.5), 0.02% Triton X-100, 150 mM NaCl (ref. [60]). […] Relevant concentrations of compounds are prepared in DMSO. The assay is performed in a dark Greiner 96-well plate, end volume 100 μl. The compound or DMSO is incubated with membrane protein lysate (final concentration 0.04 mg ml^−1) for 30 min at 37 °C. A sample without membrane protein lysate is incorporated for background subtraction. Then, substrate is added (final concentration 1 μM) and the measurement is started immediately on a TECAN infinite M1000 pro at 37 °C (excitation 485 nm, emission 535 nm), scanning every 2 min for 1 h.

[1] = system: AEA reuptake in HaCaT cells; assay: cells; assay type: cell-based, human; conditions: for AEA reuptake Efficacy (% inhibition) HaCaT cells: from dose-response; for IC50: read-out: AEA reuptake IC50 (95% CI) HaCaT cells
mCB2R = mCB2R (Mus musculus, UniProt P47936); assay: biochemical; assay type: biochemical; design: from tissue; host or cells: spleen of male C57BL/6J mice; conditions: for Emax: read-out: Emax cAMP mCB2R; for CB2R Selectivity cAMP (mouse): 10^(pEC50 CB2R-pEC50 CB1R)
hCB2R = hCB2R (Homo sapiens, UniProt P34972); assay: biochemical; assay type: biochemical; design: expressed in transfected cells; host or cells: Flp-In-293 (Invitrogen #R750-07), pcDNA5/FRT; conditions: for Emax: read-out: Emax ± SEM GTPγS hCB2R
A1 (h) = biological target: T3, A1 (h) (Homo sapiens, UniProt P30542); assay: CEREP panel; assay type: binding; conditions: 10 µM
T3 construct: CEREP
T3 sequence (P30542 1-326): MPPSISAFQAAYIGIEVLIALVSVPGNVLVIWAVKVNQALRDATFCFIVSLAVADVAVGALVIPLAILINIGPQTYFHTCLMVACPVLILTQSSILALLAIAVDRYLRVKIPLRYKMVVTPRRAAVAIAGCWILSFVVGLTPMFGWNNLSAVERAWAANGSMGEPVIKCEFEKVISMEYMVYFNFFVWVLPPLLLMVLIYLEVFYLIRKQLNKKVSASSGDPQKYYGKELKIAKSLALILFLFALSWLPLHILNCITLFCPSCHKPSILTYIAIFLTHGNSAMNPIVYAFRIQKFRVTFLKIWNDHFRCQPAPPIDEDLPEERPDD

GR (h) = biological target: T4, GR (h) (Homo sapiens, UniProt P04150); assay: CEREP panel; assay type: binding; conditions: 10 µM
T4 construct: CEREP (contract assay)
T4 sequence (P04150 1-777): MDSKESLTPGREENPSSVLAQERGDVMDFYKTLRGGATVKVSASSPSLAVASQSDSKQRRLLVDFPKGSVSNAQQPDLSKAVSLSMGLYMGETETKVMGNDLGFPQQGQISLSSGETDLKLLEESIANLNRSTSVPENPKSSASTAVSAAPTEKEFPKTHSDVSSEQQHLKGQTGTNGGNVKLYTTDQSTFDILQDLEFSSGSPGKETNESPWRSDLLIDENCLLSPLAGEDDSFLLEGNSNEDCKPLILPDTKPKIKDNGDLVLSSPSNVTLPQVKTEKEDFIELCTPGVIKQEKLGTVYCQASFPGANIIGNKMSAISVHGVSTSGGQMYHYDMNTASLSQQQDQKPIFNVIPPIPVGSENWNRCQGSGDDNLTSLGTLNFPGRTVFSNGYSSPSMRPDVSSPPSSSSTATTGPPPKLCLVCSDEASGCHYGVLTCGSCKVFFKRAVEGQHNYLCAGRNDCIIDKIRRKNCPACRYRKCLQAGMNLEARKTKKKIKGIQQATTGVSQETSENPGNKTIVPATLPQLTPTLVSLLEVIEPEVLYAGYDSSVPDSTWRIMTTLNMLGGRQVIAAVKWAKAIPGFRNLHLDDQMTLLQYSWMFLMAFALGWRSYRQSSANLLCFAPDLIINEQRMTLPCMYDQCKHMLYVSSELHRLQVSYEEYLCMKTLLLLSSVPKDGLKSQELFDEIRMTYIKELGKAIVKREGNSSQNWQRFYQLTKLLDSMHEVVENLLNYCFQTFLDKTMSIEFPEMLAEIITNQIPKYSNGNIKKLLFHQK

T2 sequence (Q6IQ20 whole entry): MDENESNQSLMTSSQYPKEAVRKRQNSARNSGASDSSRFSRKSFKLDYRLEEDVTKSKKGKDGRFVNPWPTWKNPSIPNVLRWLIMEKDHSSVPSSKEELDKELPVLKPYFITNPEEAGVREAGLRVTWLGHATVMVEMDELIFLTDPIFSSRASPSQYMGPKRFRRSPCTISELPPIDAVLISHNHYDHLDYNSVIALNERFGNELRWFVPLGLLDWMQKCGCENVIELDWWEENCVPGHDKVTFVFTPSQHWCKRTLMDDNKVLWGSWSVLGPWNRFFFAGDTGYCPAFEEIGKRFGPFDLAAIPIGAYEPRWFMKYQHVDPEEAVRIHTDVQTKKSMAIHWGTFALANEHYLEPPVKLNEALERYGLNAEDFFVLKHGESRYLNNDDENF
Sequence of hCB2R (P34972 whole entry): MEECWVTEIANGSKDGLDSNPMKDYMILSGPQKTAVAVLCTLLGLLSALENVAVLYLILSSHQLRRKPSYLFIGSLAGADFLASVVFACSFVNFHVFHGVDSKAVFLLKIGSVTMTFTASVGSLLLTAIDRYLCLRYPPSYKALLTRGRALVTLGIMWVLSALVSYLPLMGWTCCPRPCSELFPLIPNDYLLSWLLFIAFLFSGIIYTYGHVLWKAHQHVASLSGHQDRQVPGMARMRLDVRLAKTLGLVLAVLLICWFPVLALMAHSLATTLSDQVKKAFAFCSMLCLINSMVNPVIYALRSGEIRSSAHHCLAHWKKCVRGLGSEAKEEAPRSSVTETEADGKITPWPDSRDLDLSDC
Sequence of mCB2R (P47936 whole entry): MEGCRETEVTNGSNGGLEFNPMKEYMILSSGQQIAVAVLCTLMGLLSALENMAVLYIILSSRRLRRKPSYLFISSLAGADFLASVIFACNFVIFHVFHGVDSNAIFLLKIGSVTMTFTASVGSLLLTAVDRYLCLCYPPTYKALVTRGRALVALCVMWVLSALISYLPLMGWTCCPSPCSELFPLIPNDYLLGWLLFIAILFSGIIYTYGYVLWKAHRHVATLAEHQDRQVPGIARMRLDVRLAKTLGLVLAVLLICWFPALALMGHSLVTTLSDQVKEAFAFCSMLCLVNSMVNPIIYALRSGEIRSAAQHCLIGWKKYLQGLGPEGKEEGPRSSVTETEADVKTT
T1 sequence (P47746 whole entry): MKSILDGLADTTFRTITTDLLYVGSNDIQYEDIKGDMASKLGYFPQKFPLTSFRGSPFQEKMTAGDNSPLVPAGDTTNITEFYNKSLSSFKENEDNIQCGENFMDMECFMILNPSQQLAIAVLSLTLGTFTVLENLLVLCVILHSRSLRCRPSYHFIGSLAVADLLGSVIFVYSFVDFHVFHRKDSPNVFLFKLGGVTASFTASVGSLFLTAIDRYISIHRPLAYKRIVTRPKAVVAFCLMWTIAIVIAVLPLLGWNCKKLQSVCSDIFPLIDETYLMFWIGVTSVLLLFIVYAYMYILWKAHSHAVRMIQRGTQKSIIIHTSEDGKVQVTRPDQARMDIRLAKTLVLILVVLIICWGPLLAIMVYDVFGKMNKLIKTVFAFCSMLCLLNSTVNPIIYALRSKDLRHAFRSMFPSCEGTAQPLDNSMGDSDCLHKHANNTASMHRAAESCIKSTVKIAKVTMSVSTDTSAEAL

CN1CCCCC1Cn1cc(C(=O)c2cc([N+](=O)[O-])ccc2I)c2ccccc21 (racemic) [(rac)-AM1241]
Emax cAMP mCB1R (mCB1R): 21 | pEC50 ± SEM cAMP mCB1R (mCB1R): < 5 | NAPE-PLD % inhibition at 10 µM ± SD (human NAPE-PLD): 29 ± 11% | AEA reuptake Efficacy (% inhibition) HaCaT cells [1]: 80% | IC50 [1]: 4.01 µM | Emax cAMP mCB2R (mCB2R): -6 | pEC50 ± SEM cAMP mCB2R (mCB2R; mouse spleen): 7.03 ± 0.26 | Emax ± SEM GTPγS hCB2R (hCB2R): 56 ± 9 | hCB2R Selectivity GTPγS (hCB2R): 0.03 | pEC50 ± SEM GTPγS hCB2R (hCB2R): 6.89 ± 0.66

CCCCC/C=C\C/C=C\C/C=C\C/C=C\CCCC(=O)OC(CO)CO [2-AG, 2-arachidonoyl glycerol]
EC50 (mCB1R; mouse brain, read-out: pEC50 ± SEM cAMP mCB1R (converted)): > 6.31 µM and 6.92 µM | inhibition at 10 µM (human NAPE-PLD): -1 ± 12% | inhibition at 10 µM ([1]; Homo sapiens, HaCaT, read-out: AEA reuptake % inhibition, effect at 10 µM, HaCaT cells, 10 µM (values marked *)): 60% | IC50 ([1]; Homo sapiens, HaCaT): > 5 µM | EC50 (mCB2R; mouse spleen, read-out: pEC50 ± SEM cAMP mCB2R (converted)): 0.0708 µM | Emax (mCB2R): 53% | Emax (hCB2R): 57 ± 11% | EC50 (hCB2R; read-out: pEC50 ± SEM GTPγS hCB2R (converted)): 0.646 µM

CN1CCCC[C@@H]1Cn1cc(C(=O)c2cc([N+](=O)[O-])ccc2I)c2ccccc21 [(R)-AM1241]
Emax cAMP mCB1R (mCB1R): 32 | pEC50 ± SEM cAMP mCB1R (mCB1R; mouse brain): 5.08 ± 0.16 | NAPE-PLD % inhibition at 10 µM ± SD (human NAPE-PLD): 21 ± 5% | AEA reuptake % inhibition, effect at 10 µM, HaCaT cells ([1]; 10 µM (values marked *)): 25% | IC50 [1]: > 5 µM | Emax cAMP mCB2R (mCB2R): -22 | CB2R Selectivity cAMP (mouse) (mCB2R): 12 fold | pEC50 ± SEM cAMP mCB2R (mCB2R; mouse spleen): 6.17 ± 0.23 | Emax ± SEM GTPγS hCB2R (hCB2R): 33 ± 2 | pEC50 ± SEM GTPγS hCB2R (hCB2R): 7.40 ± 0.50 | hCB2R Selectivity GTPγS (hCB2R; 10^(pEC50 CB2R-pEC50 CB1R)): 4 fold

CN1CCCC[C@H]1Cn1cc(C(=O)c2cc([N+](=O)[O-])ccc2I)c2ccccc21 [(S)-AM1241]
Emax cAMP mCB1R (mCB1R): 16 | pEC50 ± SEM cAMP mCB1R (mCB1R; mouse brain): 5.43 ± 0.42 | NAPE-PLD % inhibition at 10 µM ± SD (human NAPE-PLD): 33 ± 7% | AEA reuptake Efficacy (% inhibition) HaCaT cells [1]: 90% | IC50 [1]: 4.49 µM | % inhibition A1 (h) (A1 (h)): 14% | % inhibition GR (h) (GR (h)): 10% | Emax cAMP mCB2R (mCB2R): 35 | CB2R Selectivity cAMP (mouse) (mCB2R): 148 fold | pEC50 ± SEM cAMP mCB2R (mCB2R; mouse spleen): 7.6 ± 0.3 | Emax ± SEM GTPγS hCB2R (hCB2R): 47 ± 5

Cc1c(C(=O)NN2CCCCC2)nn(-c2ccc(Cl)cc2Cl)c1-c1ccc(I)cc1 [AM251]
NAPE-PLD % inhibition at 10 µM ± SD (human NAPE-PLD): 10 ± 12% | % inhibition A1 (h) (A1 (h)): 27% | % inhibition GR (h) (GR (h)): 84% | Emax ± SEM GTPγS hCB2R (hCB2R): -29 ± 2

COc1ccc(C(=O)c2c(C)n(CCN3CCOCC3)c3cc(I)ccc23)cc1 [AM630]
Emax cAMP mCB1R (mCB1R): 13 | pEC50 ± SEM cAMP mCB1R (mCB1R; mouse brain): < 5 | NAPE-PLD % inhibition at 10 µM ± SD (human NAPE-PLD): -4 ± 11% | AEA reuptake Efficacy (% inhibition) HaCaT cells [1]: 65% | IC50 [1]: 4.18 µM | % inhibition A1 (h) (A1 (h)): 28% | % inhibition GR (h) (GR (h)): 38% | Emax cAMP mCB2R (mCB2R): -65 | pEC50 ± SEM cAMP mCB2R (mCB2R; mouse spleen): 7.93 ± 0.3 | Emax ± SEM GTPγS hCB2R (hCB2R): -22 ± 2 | pEC50 ± SEM GTPγS hCB2R (hCB2R): 6.75 ± 0.20

CCCCC/C=C\C/C=C\C/C=C\C/C=C\CCCC(=O)NCCO [Anandamide, N-arachidonoylethanolamine]
Emax (mCB1R; read-out: Emax cAMP mCB1R): < 70% | inhibition at 10 µM (human NAPE-PLD): 17 ± 9% | IC50 ([1]; Homo sapiens, HaCaT): 0.27 µM | AEA reuptake Efficacy (% inhibition) HaCaT cells [1]: 86% | EC50 (mCB2R): 0.151 µM | Emax (mCB2R): 48% | Emax (hCB2R): 31 ± 4%

CCCn1c(C)c(C(=O)c2cccc3ccccc23)c2ccccc21 [JWH015]
pEC50 ± SEM cAMP mCB1R (mCB1R; mouse brain): < 5 | Emax cAMP mCB1R (mCB1R; normalized to 10 µM CP55940): 29% | NAPE-PLD % inhibition at 10 µM ± SD (human NAPE-PLD): -4 ± 12% | AEA reuptake % inhibition, effect at 10 µM, HaCaT cells ([1]; 10 µM (values marked *)): 64% | IC50 [1]: > 5 µM | % inhibition A1 (h) (A1 (h)): 10% | % inhibition GR (h) (GR (h)): 36% | pEC50 ± SEM cAMP mCB2R (mCB2R; mouse spleen): 7.64 ± 0.24 | Emax cAMP mCB2R (mCB2R; normalized to 10 µM CP55940): 93%

Cc1c(C(=O)NN2CCCCC2)nn(-c2ccc(Cl)cc2Cl)c1-c1ccc(Cl)cc1 [SR141716A]
inhibition at 10 µM (human NAPE-PLD): 0% | AEA reuptake Efficacy (% inhibition) HaCaT cells [1]: 80% | inhibition at 10 µM (GR (h); read-out: % inhibition GR (h)): 43%

Cc1c(C(=O)c2cccc3ccccc23)c2cccc3c2n1[C@H](CN1CCOCC1)CO3 [WIN55212-2]
NAPE-PLD % inhibition at 10 µM ± SD (human NAPE-PLD): 8 ± 6% | AEA reuptake % inhibition, effect at 10 µM, HaCaT cells ([1]; 10 µM (values marked *)): 24% | IC50 [1]: > 5 µM | % inhibition A1 (h) (A1 (h)): 10% | % inhibition GR (h) (GR (h)): 63% | pEC50 ± SEM cAMP mCB2R (mCB2R; mouse spleen): 8.37 ± 0.23 | Emax cAMP mCB2R (mCB2R; normalized to 10 µM CP55940): 97%

— publication PMC5216056 (Nature Communications, 2017)
